Entries after “also recorded” stand apart in the source; their conditions may differ.
Tested on: spermatozoa
Test: Sperm separation by chemotaxis in the two-compartment device (aggregation in compartment 1a)
Format: cell-based
Conditions: for percentage of aggregated spermatozoa in compartment 1a by chemotaxis (net, Δ vs control): 6 million S/ml, 10 pM progesterone, 20 minutes incubation
Description: Separation of mobile spermatozoa (S) of seminal plasma is done by the Percoll technique. A volume of about 2 ml semen is used, which is deposited on 1 ml Percoll gradient (lower layer: 500 μl Percoll 95%, upper layer: 500 μl of Percoll 47.5%, in HAM-F10). After centrifuging 20 minutes at 1800 rpm, the cell pellet is recovered and washed twice by centrifugation for 7 min at 1000 rpm, with HAM-F10 medium. Finally, the recovered pellet is suspended in 1 ml of HAM-F10 medium, cell count is performed in a cell count chamber, and volume is adjusted in order to obtain a concentration of 8 million S/ml. S capability is increased in HAM-F10 medium supplemented with 1% human serum albumin (HSA) for 4 hours a 37° C., under 5% CO2 atmosphere in air.
When capacitation time is finished, S concentration is adjusted in order to obtain 6 million mobile S/ml, and two devices are set up as described in the preceding section (FIGS. 1-3), one without attractant as negative control, and the other with progesterone as attractant.
To set up the device control, a device as described in FIGS. 1 to 3, proceed as follows: 1) the plug is placed in compartment 1a, where culture medium (HAM-F10/1%HSA) is placed, 2) the bridge linking both compartments is filled with culture medium, 3) S suspension is placed in compartment 1b (130 μl of the solution of 6 million mobile S/ml) and this compartment is closed with the plug, 4) compartment 1a is unplugged and filled with culture medium (130 μl).
For device set up with the attractant, another device is prepared as described in FIGS. 1 to 3, like the device control but replacing culture medium with a 10 pM Progesterone solution diluted in culture medium. Once both devices are set up (“Control” and “Attractant”), they are incubated for 20 minutes at 37° C., under 5% CO2 atmosphere in air.
To take the device apart and recover the best spermatozoa, the compartment solution (1a) containing culture medium or attractant is removed. On the spermatozoa suspension removed from compartment 1a of both devices (control and attractant) cell count is performed in a cell count chamber. Then the difference in percentage of S found in each of these two compartments is determined, which enables to value net percentage of S migrating to the attractant-containing compartment (“Δ”).

| Structure (SMILES) | sperm aggregation in compartment 1a by chemotaxis when cells were previously treated with inhibitor or antibody (cells pre-treated, progesterone as attractant (FIGS. 8 and 9)) | percentage of aggregated spermatozoa in compartment 1a by chemotaxis (net, Δ vs control) | percentage of aggregated spermatozoa in compartment 1a by chemotaxis (net, Δ vs control) (listed as Progesterone) | sperm aggregation in a decreasing versus an increasing gradient of progesterone (decreasing gradient of attractant compared with increasing gradient (FIG. 10)) | sperm aggregation in the absence of gradient of progesterone (equal concentration of hormone in both compartments 1a and 1b (FIG. 10)) |
| --- | --- | --- | --- | --- | --- |
| C[C@H]1O[C@@H](n2cnc3c(N)ncnc32)C[C@@H]1O [ddAdo] | no sperm aggregation due to chemotaxis is seen | – | – | – | – |
| CC(=O)[C@H]1CC[C@H]2[C@@H]3CCC4=CC(=O)CC[C@]4(C)[C@H]3CC[C@]12C [progesterone] | – | about 10% | 9±0.4% | similar | sperm aggregation is reduced; also recorded: no sperm aggregation observed |
